Assay results as given in patent publication US20240158446A1, “CYCLIC COMPOUND HAVING SELECTIVE INHIBITORY ACTION ON KRAS OVER HRAS AND NRAS” (CHUGAI SEIYAKU KABUSHIKI KAISHA, priority 2021, published 2024).
Where two headings read alike, the source gives them in different places. Where a SMILES comes first, the peptide text is derived from it. Bridges are numbered along the chain shown (N, C = ends). [ ]: non-standard residue; d: D form. The star is where a group is joined. hPhe(3,5-F2-4-CF3) = N[C@@H](CCc1cc(F)c(C(F)(F)F)c(F)c1)C(=O)O; hPhe(3-Cl-4-CF3) = N[C@@H](CCc1ccc(C(F)(F)F)c(Cl)c1)C(=O)O; NPrPhe(4-CF3) = CCCN[C@@H](Cc1ccc(C(F)(F)F)cc1)C(=O)O; NMeGly(cPent) = CN[C@H](C(=O)O)C1CCCC1; Hyp = O=C(O)[C@@H]1C[C@@H](O)CN1; NMeD = CN[C@@H](CC(=O)O)C(=O)O; Ac4c(3-oxa) = NC1(C(=O)O)COC1; NMeL = CN[C@@H](CC(C)C)C(=O)O; Morpholide = C1CN(*)CCO1; Ac5c = NC1(C(=O)O)CCCC1; NEtG = CCNCC(=O)O; Sar = CNCC(=O)O

Experiments:
[1] = molecular target: GDP-bound NRAS wild-type protein (Homo sapiens, UniProt P01111); test: Binding to NRAS by surface plasmon resonance (SPR), Single Cycle Kinetics; conditions: SPR, GDP-bound NRAS wild-type protein vs GDP-bound KRAS wild-type protein
Chain of GDP-bound NRAS wild-type protein (P01111 whole entry): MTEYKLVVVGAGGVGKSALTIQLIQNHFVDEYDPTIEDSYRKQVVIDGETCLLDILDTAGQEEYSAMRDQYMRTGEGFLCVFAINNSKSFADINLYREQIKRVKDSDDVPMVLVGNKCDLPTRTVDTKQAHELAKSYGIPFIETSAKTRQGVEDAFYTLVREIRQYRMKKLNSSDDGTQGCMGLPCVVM

[2] = molecular target: GDP-bound KRAS wild-type protein (Homo sapiens, UniProt P01116); test: Binding to KRAS by surface plasmon resonance (SPR), Single Cycle Kinetics; conditions: GDP-bound KRAS wild-type protein, read-out: KRAS KD
Chain of GDP-bound KRAS wild-type protein (P01116 whole entry): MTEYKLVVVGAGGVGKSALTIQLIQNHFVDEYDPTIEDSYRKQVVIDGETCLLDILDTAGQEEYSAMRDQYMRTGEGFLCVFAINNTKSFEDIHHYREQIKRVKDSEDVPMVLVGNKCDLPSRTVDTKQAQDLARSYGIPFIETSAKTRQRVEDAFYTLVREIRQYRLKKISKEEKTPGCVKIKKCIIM

[3] = molecular target: GDP-bound HRAS wild-type protein (Homo sapiens, UniProt P01112); test: Binding to HRAS by surface plasmon resonance (SPR), Single Cycle Kinetics; conditions: SPR, GDP-bound HRAS wild-type protein vs GDP-bound KRAS wild-type protein
Chain of GDP-bound HRAS wild-type protein (P01112 whole entry): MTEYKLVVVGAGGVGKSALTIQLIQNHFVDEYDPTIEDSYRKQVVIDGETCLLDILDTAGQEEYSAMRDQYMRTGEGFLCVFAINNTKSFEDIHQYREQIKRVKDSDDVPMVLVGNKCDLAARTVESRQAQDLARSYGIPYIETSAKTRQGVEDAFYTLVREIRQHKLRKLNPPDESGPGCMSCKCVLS

[4] = SPR Single Cycle Kinetics, 1:1 binding model

SMILES | NRAS/KRAS (ratio of KD value with respect to NRAS to KD value with respect to KRAS) [1] | Kd [2, 4] [nM] | HRAS/KRAS (ratio of KD value with respect to HRAS to KD value with respect to KRAS) [3] | NRAS/KRAS (ratio of KD value for NRAS to KD value for KRAS) [1] | HRAS/KRAS (ratio of KD value for HRAS to KD value for KRAS) [3] | further results
CCO[C@@H]1C[C@H]2C(=O)NC3(CCC3)C(=O)N(C)[C@@H](C3CCCC3)C(=O)N(C)[C@H](C(C)C)CC(=O)N(C)[C@@H](CC)C(=O)N[C@@H]([C@@H](C)CC)C(=O)N(C)CC(=O)N(C)[C@H]3C/C=C\CCN(C3=O)[C@@H](CC3CCCCC3)C(=O)N(C)CC(=O)N[C@@H](CCc3cc(F)c(C(F)(F)F)c(F)c3)C(=O)N2C1 [PP1601] |  |  |  |  |  | NRAS/KRAS (ratio of KD value for NRAS to KD value for KRAS) ([1]; KD ratio class): B (a compound having 3 or more and less than 10 is denoted as B); Kd ([2]; SPR, Single Cycle Kinetics, 1:1 binding model): 2.1 nM; HRAS/KRAS (ratio of KD value for HRAS to KD value for KRAS) ([3]; KD ratio class): A (a compound having 10 or more and less than 20 is denoted as A)
CCCN1C(=O)CN(C)C(=O)CN(C)C(=O)[C@H]([C@@H](C)CC)NC(=O)[C@H](CC(C)C)N(C)C(=O)C[C@@H](C(=O)N(C)C)N(C)C(=O)[C@H](C2CCCC2)N(C)C(=O)C2(CCCC2)NC(=O)[C@@H]2C[C@@H](OCC)CN2C(=O)[C@H](CCc2ccc(C(F)(F)F)c(Cl)c2)NC(=O)CN(C)C(=O)[C@@H]1Cc1ccc(C(F)(F)F)cc1 [PP0415] ([NMeL]I[Sar][Sar][NPrPhe(4-CF3)][Sar][hPhe(3-Cl-4-CF3)][Hyp](Et)[Ac5c][NMeGly(cPent)][NMeD]-NMe2; lactam N-11) | B (a compound having 3 or more and less than 10 is denoted as B) | 0.018 | B (a compound having 3 or more and less than 10 is denoted as B) |  |  | 
CCC[C@H]1C(=O)N[C@@H](C2CCCC2)C(=O)N(C)CC(=O)N(C)[C@H]2C/C=C\CCN(C2=O)[C@@H](Cc2ccc(C)cc2)C(=O)N(C)CC(=O)N[C@@H](CCc2ccc(C(F)(F)F)c(Cl)c2)C(=O)N2C[C@H](OCC)C[C@H]2C(=O)NC2(CC(C)(C)C2)C(=O)N(C)[C@@H](C2CCCC2)C(=O)N(C)[C@H](C(=O)N(C)C)CC(=O)N1C [PP2198] |  |  |  | A (a compound having 10 or more and less than 20 is denoted as A) | A (a compound having 10 or more and less than 20 is denoted as A) | Kd ([2]; SPR, Single Cycle Kinetics): 0.21 nM
CCCN1C(=O)CN(C)C(=O)CNC(=O)[C@H]([C@@H](C)CC)NC(=O)[C@H](CC(C)C)N(C)C(=O)C[C@@H](C(=O)N(C)C)N(C)C(=O)[C@H](C2CCCC2)N(C)C(=O)C2(CCCC2)NC(=O)[C@@H]2C[C@@H](OCC)CN2C(=O)[C@H](CCc2ccc(C(F)(F)F)c(Cl)c2)NC(=O)CN(C)C(=O)[C@@H]1Cc1ccc(C(F)(F)F)cc1 [PP0421] ([NMeL]IG[Sar][NPrPhe(4-CF3)][Sar][hPhe(3-Cl-4-CF3)][Hyp](Et)[Ac5c][NMeGly(cPent)][NMeD]-NMe2; lactam N-11) | B (a compound having 3 or more and less than 10 is denoted as B) | 0.033 | C (A compound having a KD ratio of 0.1 or more and less than 3 is denoted as C) |  |  | 
CCC[C@H]1C(=O)N[C@@H]([C@@H](C)CC)C(=O)N(C)CC(=O)N(C)[C@H]2C/C=C\CCN(C2=O)[C@@H](Cc2ccc(C(F)(F)F)cc2)C(=O)N(C)CC(=O)N[C@@H](CCc2cc(F)c(C(F)(F)F)c(F)c2)C(=O)N2C[C@H](OCC)C[C@H]2C(=O)NC2(CC(C)(C)C2)C(=O)N(C)[C@@H](C(CC)CC)C(=O)N(C)[C@H](C(=O)N(C)C)CC(=O)N1C [PP2125] |  |  |  | AA (a compound having 20 or more is denoted as AA) | A (a compound having 10 or more and less than 20 is denoted as A) | Kd ([2]; SPR, Single Cycle Kinetics): 0.22 nM
CCCN1C(=O)CN(C)C(=O)CN(CC)C(=O)[C@H]([C@@H](C)CC)NC(=O)[C@H](CC(C)C)N(C)C(=O)C[C@@H](C(=O)N2CCOCC2)NC(=O)[C@H](C2CCCC2)N(C)C(=O)C2(CCCC2)NC(=O)[C@@H]2CCCN2C(=O)[C@H](CCc2ccc(C(F)(F)F)c(Cl)c2)NC(=O)CN(C)C(=O)[C@@H]1Cc1ccc(C(F)(F)F)cc1 [PP0331] ([NMeL]I[NEtG][Sar][NPrPhe(4-CF3)][Sar][hPhe(3-Cl-4-CF3)]P[Ac5c][NMeGly(cPent)]D-Morpholide; lactam N-11) |  | 2.8 |  | B (a compound having 3 or more and less than 10 is denoted as B) | B (a compound having 3 or more and less than 10 is denoted as B) | 
CCCN1C(=O)CN(C)C(=O)CN(C)C(=O)[C@H]([C@@H](C)CC)NC(=O)[C@H](CC(C)C)N(C)C(=O)C[C@@H](C(=O)N(C)C)N(C)C(=O)[C@H](C2CCCC2)N(C)C(=O)C2(COC2)NC(=O)[C@@H]2CCCN2C(=O)[C@H](CCc2cc(F)c(C(F)(F)F)c(F)c2)NC(=O)CN(C)C(=O)[C@@H]1Cc1ccc(C(F)(F)F)cc1 [PP0744] ([NMeL]I[Sar][Sar][NPrPhe(4-CF3)][Sar][hPhe(3,5-F2-4-CF3)]P[Ac4c(3-oxa)][NMeGly(cPent)][NMeD]-NMe2; lactam N-11) | B (a compound having 3 or more and less than 10 is denoted as B) | 0.06 | B (a compound having 3 or more and less than 10 is denoted as B) |  |  | 
